One data set deals with tyrosinase. Put plainly: Test of tyrosinase activity inhibition (L-DOPA substrate, absorbance at 475 nm). In kind it is biochemical. The following applies: Fig. 2; for tyrosinase inhibitory activity compared with 3H2P: at the same concentration as 3H2P; for tyrosinase inhibitory activity: free acid, concentration of 0.1 to 0.5 mg/ml. How it is done:
A solution of 6 mM L-DOPA, an aqueous solution of the test compound adjusted to a given concentration, and a phosphate buffer (pH 6.8) were mixed at a ratio of 2:2:1 by volume. The resulting substrate mixture (1.0 ml) was mixed with 0.2 ml of a solution of 0.017 mg/ml tyrosinase (Sigma), and the enzyme reaction was initiated at 37°C. The absorbance of the enzyme reaction solution was measured at 475 nm 0 and 3 minutes after the initiation of the reaction. The test group subjected to the enzyme reaction in the same manner described above, except that the test compound was not included, was designate as the blank test group. On the basis of the measured absorbance, the inhibition rate of tyrosinase activity was determined using the formula shown below. […] Inhibition rate of tyrosinase activity (%) = (1−(The difference in the absorbance of the test compound in the enzyme reaction solution between 0 minutes and 3 minutes after the initiation of the reaction)/(The difference in the absorbance of the blank in the enzyme reaction solution between 0 min and 3 min)) × 100 [formula]

Data set [1] in a line: Stability test in aqueous citrate buffer solution (reversed-phase HPLC quantification). In kind it is physicochemical. The following applies: for percentages of compounds remaining in the test solutions after storage: 3 weeks, 20 mM citrate buffer solution (pH 6.0), 0.1% (weight/volume). On the procedure: 3H2P phosphate monoester (1) (not according to the invention) and 3H2P phosphate bisester (2) (according to the invention) in the form of free acid were dissolved in a 20 mM citrate buffer solution (pH 6.0) to a concentration of 0.1% (weight/volume). The test solutions were stored at 4°C, 25°C, or 40°C for 3 weeks. 3H2P phosphate monoester (1) or 3H2P phosphate bisester (2) contained in the stored test solutions were quantitatively analyzed via reversed-phase HPLC (Inertsil® ODS-3, 5 µm, 4.6 × 250 mm, GL Sciences). For comparative example, the similar test was carried out in the manner described above with the use of 3H2P. […]

In data set [2] the test system is Mouse-derived B16 melanoma cells 4A5. In words: Test for melanin production inhibition. In kind it is cell-based. As to conditions: for melanin amount relative to the melanin amount of the control group: concentration of 5 µg/ml, control group = 100, day 6 of culture; for melanin production inhibitory activity: concentrations of 1, 5, and 10 µg/ml, compared with 3H2P and arbutin, Fig. 1; for melanin production inhibitory activity, free acid compared with triethylamine salt: free acid (Fig. 1A) vs triethylamine salt (Fig. 1B). On the procedure:
Mouse-derived B16 melanoma cells 4A5 (RIKEN) were seeded on a 6-well plate with the use of DMEM medium containing 10% FBS to a cell density of 5.0 × 10^4 cells/well (day 0 of culture), and culture was conducted at 37°C in the presence of 5% CO2 for 24 hours. On the following day, the cell-seeded medium was exchanged with a medium supplemented with the test compound at a given concentration (day 1 of culture). The medium was exchanged with a fresh medium every other day from day 2 and thereafter. The cells were recovered via treatment with trypsin on day 6 of culture, and melanin was extracted using an aqueous solution of 1 N sodium hydroxide. The absorbance of the melanin extract was measured at 405 nm, and the melanin amount was determined using a calibration curve prepared with the use of a melanin standard sample. In addition, the protein amount of the cells recovered in the manner described below was determined using the DC Protein Assay Kit (BIO-RAD) and employed as the cell count index. […] In the figure, the melanin amount and the cell count of test groups to which the test compounds had been added are represented relative to the measured melanin amount and cell count of the control group to which no test compound had been added (concentration: 0), which is designated as 100.

Like-named read-outs stand apart in the source and are kept apart here.

For the compound `O=c1occcc1OP(=O)(O)Oc1cccoc1=O` [3H2P phosphate bisester (2), 3-hydroxy-2-pyrone phosphate bisester], in the data set with tyrosinase, the “tyrosinase inhibitory activity compared with 3H2P” value is “lower than the tyrosinase inhibitory activity of 3H2P” and the tyrosinase inhibitory activity entry was “low tyrosinase inhibitory activity”. Further, the “percentages of compounds remaining in the test solutions after storage” value (“percentages of compounds remaining” for short) in data set [1] (4°C) was 100%. Moreover, the “percentages of compounds remaining” value in data set [1] (25°C) is on record as 100%. Moreover, the “percentages of compounds remaining” value in data set [1] (40°C) came out at 99.3%. Moreover, the “stability in weak-acidic to neutral water, compared with non-phosphorylated 3H2P” value in data set [1] (summary in words of Table 1) is on record as “remarkably improved stability”. In data set [2], the “melanin amount relative to the melanin amount of the control group” value is listed as “approximately 50%”; the “melanin production inhibitory activity” value is on record as “slightly lower than that of 3H2P but equivalent to that of arbutin”; the “melanin production inhibitory activity, free acid compared with triethylamine salt” value is reported as “approximately equivalent melanin production inhibitory activity”.
In the case of `O=c1occcc1O` [Compound 3H2P, 3-hydroxy-2-pyrone, reference compound], the “percentages of compounds remaining” value worked out at 98.4% in data set [1] (4°C), 87.3% in data set [1] (25°C) and 53.2% in data set [1] (40°C).
With `O=c1occcc1OP(=O)(O)O` [3H2P phosphate monoester (1), 3-hydroxy-2-pyrone phosphate monoester], in the data set with tyrosinase, the “tyrosinase inhibitory activity compared with 3H2P” value is reported as “lower than the tyrosinase inhibitory activity of 3H2P” and the tyrosinase inhibitory activity result is “low tyrosinase inhibitory activity”. Further, the “stability in weak-acidic to neutral water, compared with non-phosphorylated 3H2P” value in data set [1] is reported as “remarkably improved stability”. Further, in data set [2], the “melanin amount relative to the melanin amount of the control group” value is listed as “approximately 50%”; the “melanin production inhibitory activity” value is on record as “slightly lower than that of 3H2P but equivalent to that of arbutin”; the “melanin production inhibitory activity, free acid compared with triethylamine salt” value was “approximately equivalent melanin production inhibitory activity”.

Values taken from EP2990408B1, “NOVEL WHITENING AGENT” (Nichirei Biosciences Inc., priority 2013, dated 2014).
